Results: patent US5283343A, “2-aryl substituted N-acetyltryptamines and process of preparing such” (priority 1991, dated 1994)
“Also recorded” adds a separate entry of the source.

Key:
melatonin receptor [1] = conditions: rabbit or chicken retina, Dubocovich 1985; cited from earlier work
[2] = Behavioral despair (forced swimming) test for antidepressants, albino Swiss ND/4 mice; assay type: in vivo, mouse (male albino Swiss ND/4); conditions: for change in time of immobility (in words): albino Swiss mice, noon or midnight; for Duration of Immobility: albino Swiss ND/4 mice, 30 mg/kg
Text: (§1) Methods: Typical and atypical antidepressants reduce the time during which mice are immobile in a forced swimming test. [Porsolt et al., Arch. Int. Pharmacodun. Ther. 229:327-336 (1977)]. This test, known as the behavioral despair test, appears to be a good predictor of clinical antidepressant activity.
(§2) Male albino Swiss ND/4 mice and C3H/HeN mice (4 to 5 weeks old) were purchased from Harlam Sprague Dawley (Indianapolis, Ind.). […] The animals were kept in the same facilities at least two weeks before the experiment to allow them to adapt to a 14/10 hour light/dark cycle (lights on at 4 a.m./off at 6 p.m.).
(§3) Mice were housed in groups of 10 in polycarbonate plastic cages 137/8×85/8×51/8 inches with 88 square inches of floor space) with free access to feed (Agway 3000 rat, mouse and hamster feed) and water. During the light period, light intensity at the level of the cages was about 250 lux. The room temperature was kept constant at 22±1° C. The present series of experiments were conducted between October, 1986 and January, 1987.
(§4) The day of the experiment, mice were weighed, marked on the tail and placed in cages (8 mice per cage) as described above. Animals were transferred to the laboratory where the swim test was to be conducted at 10:00 a.m. for noon experiments and at 5:00 p.m. for evening experiments. For noon experiments, the swim test was started at 12:00 h and for midnight experiments, the swim test was started at 24:00 h. Two mice obtained from different experimental groups were tested simultaneously.
(§5) Apparatus: The apparatus consisted of two glass beakers (height: 13 cm; diameter: 11.5 cm), each placed inside a bigger glass beaker (height: 20 cm; diameter: 12.4 cm) containing 6 cm of water at 23±1° C. A non-transparent panel placed between the two cylinders prevented the mice from seeing each other. At midnight, experiments were conducted under red dim light (Kodak, filter A) provided by two photographic safety lights located at each side of the beakers.
(§6) Drugs: Mice were injected with vehicle or drugs dissolved in vehicle dissolved at the appropriate concentrations. Each mouse received 0.1 ml of liquid/10 g body weight. Drugs were dissolved immediately before the experiment. Desipramine was obtained from Sigma (St. Louis, Mo.) and dissolved in water. […] Bright light was administered with a fluorescent lamp placed one foot above the mice.
(§7) Methods The swim test was conducted as described by Porsolt et al. [Arch. Int. Pharmacodyn. 229:327-336 (1977)]. Forced swim in a narrow cylinder induced a depressed state characterized by an immobile posture, which is readily identifiable. A mouse is considered to be immobile when it ceases struggling and remains floating motionless in the water, making only those movements necessary to keep its head above water. […] Two mice that had received different treatments were observed simultaneously. Mice were dropped into the cylinders and left in the water for 6 minutes. The time of immobility was recorded during the last 4 minutes of swimming.

melatonin receptor [3] = molecular target: T1, melatonin receptor (Oryctolagus cuniculus, UniProt G1SUP2); conditions: in vitro, Dubocovich literature; cited from earlier work
T1 sequence (G1SUP2 1-362): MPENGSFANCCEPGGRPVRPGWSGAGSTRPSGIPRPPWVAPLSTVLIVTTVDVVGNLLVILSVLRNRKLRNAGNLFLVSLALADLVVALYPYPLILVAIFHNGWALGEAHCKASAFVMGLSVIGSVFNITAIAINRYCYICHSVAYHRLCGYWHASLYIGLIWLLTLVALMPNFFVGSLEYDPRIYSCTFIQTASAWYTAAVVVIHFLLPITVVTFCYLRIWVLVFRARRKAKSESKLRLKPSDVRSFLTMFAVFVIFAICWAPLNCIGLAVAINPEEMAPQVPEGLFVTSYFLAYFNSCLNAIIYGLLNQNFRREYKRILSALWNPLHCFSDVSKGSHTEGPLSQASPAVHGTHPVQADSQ

[4] = Behavioral despair (forced swimming) test for antidepressants, C3H/HeN mice; assay type: in vivo, mouse (C3H/HeN)
Text: as §1, §2, §3, §4, §5, §6, §7

melatonin receptor [5] = molecular target: T1, melatonin receptor; experiment: Melatonin receptor assay: calcium-dependent/stimulation-evoked release of 3H-dopamine from rabbit retina (Dubocovich assay); assay type: biochemical; conditions: for effect on melatonin concentration-response curves / melatonin-induced inhibition of calcium-dependent 3H-DA release: compound present during S1 and S2, 0.1, 1 or 10 μM, FIGS. 3a, 3b
Protocol: Briefly, dopamine release was elicited in vitro by electrical field stimulation (3 Hz, 1 min. 20 mA, […].) of rabbit retinal pieces which had been prelabeled with ^3 H-dopamine. Release was determined as the percentage of total tissue radioactivity that was released during stimulation(s) minus the spontaneous release level determined before and after stimulation. Two periods of stimulation (S1 and S2) were applied 40 minutes apart in each experiment. Results are expressed as the ratio of release in S2 to release in S1 (FIG. 1.).
Drugs are added 20 minutes before the second stimulation to test their effect on the spontaneous and stimulation evoked release of ^3 H-dopamine.
First, the compounds (antagonists) were tested alone to determine their effect on spontaneous and stimulated release of dopamine (FIG. 2a.).
The compound of Example A was present during both S1 and S2 at a concentration of 0.1 μM, 1 μM, or 10 μM. Control is .largecircle..

[6] = C3H/HeN mice, noon and midnight
[7] = C3H/HeN mice, 3.00 mg/kg, midnight, control 67.7 ± 2.15
[8] = C3H/HeN mice, 3.00 mg/kg, noon, control 47.7 ± 3.4
[9] = C3H/HeN mice, 10.00 mg/kg, midnight, control 67.7 ± 2.15
[10] = C3H/HeN mice, 10.00 mg/kg, noon, control 47.7 ± 3.4
[11] = C3H/HeN mice, .03 mg/kg, midnight, control 67.7 ± 2.15
[12] = C3H/HeN mice, .03 mg/kg, noon, control 47.7 ± 3.4

Row | Structure (SMILES) | change in time of immobility (in words) [2] | change in time of immobility (in words) [4, 6] | Duration of Immobility ([2]; midnight, control 84.3 ± 11.2) [s] | Duration of Immobility ([2]; noon, control 72.4 ± 4.9) [s] | Duration of Immobility [4, 7] [s] | Duration of Immobility [4, 8] [s] | Duration of Immobility [4, 9] [s] | Duration of Immobility [4, 10] [s] | Duration of Immobility [4, 11] [s] | Duration of Immobility [4, 12] [s] | further results
1 | CC(=O)NCCc1c[nH]c2ccccc12 [N-acetyl tryptamine] | – | – | – | – | – | – | – | – | – | – | melatonin receptor antagonist property (melatonin receptor [1]): melatonin receptor antagonist
2 | COc1ccc2[nH]cc(CCNC(C)=O)c2c1 [Melatonin, 5-methoxy-N-acetyl tryptamine] | neither melatonin nor the melatonin receptor antagonist N-0074 modified the time of immobility | did not change the time of immobility | – | – | – | – | – | – | – | – | inhibition of calcium-dependent release of 3H dopamine from rabbit retina (melatonin receptor [3]): inhibit dopamine release; also recorded: picomolar concentrations; Duration of Immobility ([4]; C3H/HeN mice, 30 mg/kg, Noon (In-Darkness Administration), control 29.5 ± 3.34): 48.2 ± 5.02 s; Duration of Immobility ([4]; C3H/HeN mice, 30.00 mg/kg, midnight, control 67.7 ± 2.15): 57.9 ± 9.0 s; Duration of Immobility ([4]; C3H/HeN mice, 30.00 mg/kg, noon, control 47.7 ± 3.4): 45.9 ± 18.0 s; change in time of immobility (in words) ([4]; C3H/HeN mice, noon, in-darkness administration): increased the time of immobility
3 | CNCCCN1c2ccccc2CCc2ccccc21 [Desipramine] | same decrease in time of immobility in the behavioral despair test at noon and at midnight | more potent to reduce the time of immobility at midnight than at noon | 46.0 ± 1.3 | 38.2 ± 5.1 | 16.1 ± 6.0 | 20.7 ± 3.7 | 13.2 ± 7.2 | 20.7 ± 2.0 | 33.2 ± 7.3 | 46.2 ± 12.9 | –
4 | CC(=O)NCCc1c(Cc2ccccc2)[nH]c2ccccc12 [Example N-0774, 2-benzyl-N-acetyl tryptamine] | neither melatonin nor the melatonin receptor antagonist N-0074 modified the time of immobility | reduces the time of immobility in a dose-dependent fashion, the effect being more pronounced at midnight than at noon | 81.4 ± 3.9 | 57.4 ± 8.9 | 16.1 ± 5.2 | 37.4 ± 6.6 | 13.1 ± 3.6 | 52.1 ± 6.8 | 47.7 ± 4.7 | 53.8 ± 8.8 | estimated KB (affinity constant from the Schild plot) (melatonin receptor [5]; antagonist against melatonin, rabbit retina, antagonist 0.1, 1 or 10 μM in S1 and S2): 20 µM; direct effect on spontaneous dopamine release (Sp2/Sp1) (melatonin receptor [5]; compound alone, 0.1-10 μM, FIG. 2a, listed as Example A): little or no direct effects; also recorded: did not modify the control ratio Sp2 /Sp1; direct effect on stimulated (calcium-dependent) dopamine release (S2/S1) (melatonin receptor [5]; compound alone, 0.1-10 μM, FIG. 2b, listed as Example A): little or no direct effects; also recorded: did not modify the control ratio; effect on melatonin concentration-response curves / melatonin-induced inhibition of calcium-dependent 3H-DA release (melatonin receptor [5]; listed as Example A): shifted in parallel to the right; effect on melatonin concentration-response curves / melatonin-induced inhibition of calcium-dependent 3H-DA release (melatonin receptor [5]; listed as Luzindole (N-0774)): antagonization of melatonin-induced inhibition; activity at melatonin receptors (conclusion) (melatonin receptor [5]; rabbit retina): potent, competitive antagonist at melatonin receptors; Duration of Immobility ([4]; Table 4, 10 mg/kg, midnight, control 67.7 ± 2.15, strain not given): 16.1 ± 5.20 s; change in time of immobility (in words) ([4]; midnight, compared with bright light): decreases the time of immobility
